How the values were obtained:
Gxf1 [1] = target: T1, Gxf1 (Sungouiella intermedia, UniProt Q2MDH1); assay: growth complementation (spot assay) and sugar consumption (HPLC) in transporter-null yeast; assay type: cell-based; details: S. cerevisiae EBY_Xyl1, 30 °C, 20 g/L glucose spot assay; 10 g/L glucose with 10 g/L xylose in fermentation; uptake inferred
T1 sequence (Q2MDH1 1-547): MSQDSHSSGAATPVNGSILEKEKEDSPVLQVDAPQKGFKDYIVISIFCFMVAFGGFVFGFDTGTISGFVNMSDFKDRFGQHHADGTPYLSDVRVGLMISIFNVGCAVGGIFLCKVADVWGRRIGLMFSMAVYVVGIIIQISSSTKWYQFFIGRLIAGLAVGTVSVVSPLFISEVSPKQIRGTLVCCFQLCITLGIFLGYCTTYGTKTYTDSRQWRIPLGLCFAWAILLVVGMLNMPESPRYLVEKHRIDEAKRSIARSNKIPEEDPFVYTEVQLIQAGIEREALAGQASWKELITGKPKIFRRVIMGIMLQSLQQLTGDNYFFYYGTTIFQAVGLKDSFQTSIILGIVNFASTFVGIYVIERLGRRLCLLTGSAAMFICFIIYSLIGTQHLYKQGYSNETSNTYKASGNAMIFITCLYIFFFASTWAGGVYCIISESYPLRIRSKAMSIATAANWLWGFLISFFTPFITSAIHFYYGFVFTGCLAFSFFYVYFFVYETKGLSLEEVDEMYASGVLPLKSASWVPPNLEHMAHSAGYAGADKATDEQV

Gxf1 [2] = target: T1, Gxf1; assay: as above; assay type: cell-based; details: S. cerevisiae EBY_Xyl1, 30 °C, xylose 5-50 g/L; uptake inferred

SMILES	growth complementation (spot assay) and sugar consumption (HPLC) in transporter- (Gxf1 [1])	growth complementation (spot assay) and sugar consumption (HPLC) in transporter- (Gxf1 [2])
OC[C@H]1OC(O)[C@H](O)[C@@H](O)[C@@H]1O (some centres unmarked) [glucose]	Cs3894 and Gxf1 were able to support better and similar patterns of growth on glucose	
OC1OC[C@@H](O)[C@H](O)[C@H]1O (some centres unmarked) [xylose]		The facilitator Gxf1 restored growth in all xylose concentrations evaluated

— publication PMC7427733, “Novel xylose transporter Cs4130 expands the sugar uptake repertoire in recombinant Saccharomyces cerevisiae strains at high xylose concentrations” (Biotechnology for Biofuels, 2020)
